From US9850283B2, “Macrocyclic inhibitors of the PD-1/PD-L1 and CD80(B7-1)/PD-L1 protein/protein interactions” (BRISTOL-MYERS SQUIBB COMPANY, priority 2013, dated 2017)
pIC50: −log10 of the molar value. Like-named read-outs stand apart in the source and are kept apart here. Positions of bridges follow the written chain, without caps; N, C: chain ends. Non-standard residues stand in square brackets, D forms with d. Residues, ends and D or L forms follow the SMILES beside them. ξ: configuration not given here. PEG12 = NCCOCCOCCOCCOCCOCCOCCOCCOCCOCCOCCOCCOCCC(=O)O; Pro(cis-4-Ph) = O=C(O)[C@@H]1C[C@H](c2ccccc2)CN1; Phe(4-Br) = N[C@@H](Cc1ccc(Br)cc1)C(=O)O; ξPro(4R-OH) = O=C(O)C1C[C@@H](O)CN1; 4Pal = N[C@@H](Cc1ccncc1)C(=O)O; NMeNle = CCCC[C@H](NC)C(=O)O; NMeM = CN[C@@H](CCSC)C(=O)O; NMeA = CN[C@@H](C)C(=O)O; Dap = NC[C@H](N)C(=O)O; ξP = O=C(O)C1CCCN1; ξC = NC(CS)C(=O)O; Sar = CNCC(=O)O

Assays:
[1] = biological target: T1, LK35.2-hPD-L1 cells / PE-labeled PD-1-Ig (Homo sapiens, UniProt Q9NZQ7); experiment: LK35.2-hPD-L1 cell binding high-content screening assay; format: cell-based; conditions: cell binding assay, cell line not given
T1 construct: expressed in transfected cells; host or cells: LK35.2 mouse B cell line
Description: LK35.2-hPD-L1 Cell Binding High-Content Screening Assay. Phycoerythrin (PE) was covalently linked to the Ig epitope tag of human PD-1-Ig and fluorescently-labeled PD-1-Ig was used for binding studies with a mouse B cell line (LK35.2) stably over-expressing human PD-L1 (LK35.2-hPD-L1). Briefly, 3×10^3 LK35.2-hPD-L1 cells were seeded into 384 well plates in 20 ul of RPMI supplemented with 10% fetal calf serum and cultured overnight. 125 nl of compound was added to cells, followed by 5 ul of PE-labeled PD-1-Ig (1 nM final), diluted in RPMI supplemented with 10% fetal calf serum, followed by incubation at 37° C. for 1 h. […] Cells were washed 3× in 100 ul of dPBS followed by final addition of 15 ul of dPBS. Data was collected and processed using a Cell Insight NXT High Content Imager and associated software.

[2] = biological target: T2, Human PD-L1/PD-1 (Homo sapiens, UniProt Q9NZQ7); experiment: HTRF PD-1-Ig/PD-L1-His binding assay (human PD-L1)
T2 construct: made in house; host or cells: HEK293T
Excerpt: The ability of the macrocyclic peptides of the present disclosure to bind to PD-L1 was investigated using a PD-1/PD-L1 Homogenous Time-Resolved Fluorescence (HTRF) binding assay.
Homogenous Time-Resolved Fluorescence (HTRF) Assays of Binding of Soluble PD-1 to Soluble PD-L1. Soluble PD-1 and soluble PD-L1 refers to proteins with carboxyl-end truncations that remove the transmembrane-spanning regions and are fused to heterologous sequences, specifically the Fc portion of the human immunoglobuling G sequence (Ig) or the hexahistidine epitope tag (His). All binding studies were performed in an HTRF assay buffer consisting of dPBS supplemented with 0.1% (w/v) bovine serum albumin and 0.05% (v/v) Tween-20. […] PD-L1 fusion proteins from either human, cynomologous macaques, or mouse were used. HTRF detection was achieved using europium crypate-labeled anti-Ig monoclonal antibody (1 nM final) and allophycocyanin (APC) labeled anti-His monoclonal antibody (20 nM final). Antibodies were diluted in HTRF detection buffer and 5 μl was dispensed on top of binding reaction.

[3] = Table 8, Compound No. 1 variant macrocyclic peptides, read-out: HTRF Human PD-L1/PD-1 Binding Assay IC50

T2 sequence (Q9NZQ7 with tags, fused parts or gaps): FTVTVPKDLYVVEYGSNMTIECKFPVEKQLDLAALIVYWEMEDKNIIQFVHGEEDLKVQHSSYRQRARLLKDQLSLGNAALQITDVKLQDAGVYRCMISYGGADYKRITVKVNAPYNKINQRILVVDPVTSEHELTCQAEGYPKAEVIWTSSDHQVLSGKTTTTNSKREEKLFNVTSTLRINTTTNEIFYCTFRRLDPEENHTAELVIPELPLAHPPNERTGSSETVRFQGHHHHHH
T1 sequence (Q9NZQ7 19-290): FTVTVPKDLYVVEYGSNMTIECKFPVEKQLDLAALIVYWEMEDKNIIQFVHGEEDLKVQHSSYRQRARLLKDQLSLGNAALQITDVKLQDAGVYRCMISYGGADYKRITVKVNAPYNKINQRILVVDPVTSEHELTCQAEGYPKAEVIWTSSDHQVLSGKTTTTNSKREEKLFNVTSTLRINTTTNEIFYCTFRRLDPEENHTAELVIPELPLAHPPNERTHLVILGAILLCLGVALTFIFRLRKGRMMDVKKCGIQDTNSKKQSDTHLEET

`CCCC[C@H]1C(=O)N(C)[C@@H](CCCC)C(=O)N[C@@H](CCC(=O)O)C(=O)N[C@H](C(=O)NCC(N)=O)CSCC(=O)N[C@@H](Cc2ccc(O)cc2)C(=O)N(C)[C@@H](C)C(=O)N[C@@H](CC(=O)O)C(=O)N2CCC[C@H]2C(=O)N[C@@H](Cc2c[nH]cn2)C(=O)N[C@@H](CCCCN)C(=O)N2C[C@@H](c3ccccc3)C[C@H]2C(=O)N[C@@H](Cc2c[nH]c3ccccc23)C(=O)N[C@@H](CCCCN)C(=O)N[C@@H](Cc2c[nH]c3ccccc23)C(=O)N1C` [Example 13006] ({CH2CO}-Y[NMeA]DPHK[Pro(cis-4-Ph)]WKW[NMeNle][NMeNle]ECG-NH2; thioether N-14) gave a pIC50 ([1]; value given instead of cluster, read-out: CBA IC50 value) of 8.83.
With `CCCC[C@H]1C(=O)N[C@@H](CCCNC(=N)N)C(=O)NC(C(=O)NCC(N)=O)CSCC(=O)N[C@@H](Cc2ccc(O)cc2)C(=O)N(C)[C@@H](C)C(=O)N[C@@H](CC(N)=O)C(=O)N2CCC[C@H]2C(=O)N[C@@H](CN)C(=O)N[C@@H](CC(C)C)C(=O)N2CCC[C@H]2C(=O)N[C@@H](Cc2c[nH]c3ccccc23)C(=O)N[C@@H](CO)C(=O)N[C@@H](Cc2c[nH]c3ccccc23)C(=O)N(C)[C@@H](CCSC)C(=O)N1C` (stereo partly shown) [Example 9097] ({CH2CO}-Y[NMeA]NP[Dap]LPWSW[NMeM][NMeNle]R[ξC]G-NH2; thioether N-14) the pIC50 ([1]; cluster symbol, read-out: CBA IC50 cluster) was 7.14 to 8.32.
With `CCCC[C@H]1C(=O)N(C)[C@@H](CCCC)C(=O)N[C@@H](CCCNC(=N)N)C(=O)N[C@H](C(=O)NCC(=O)NCCOCCOCCOCCOCCOCCOCCOCCOCCOCCOCCOCCOCCC(N)=O)CSCC(=O)N[C@@H](Cc2ccccc2)C(=O)N(C)[C@@H](C)C(=O)N[C@@H](CC(N)=O)C(=O)N2CCC[C@H]2C(=O)N[C@@H](Cc2cnc[nH]2)C(=O)N[C@@H](CC(C)C)C(=O)N(C)CC(=O)N[C@@H](Cc2c[nH]c3ccccc23)C(=O)N[C@@H](CO)C(=O)N[C@@H](Cc2c[nH]c3ccccc23)C(=O)N1C` [Compound No. 116] ({CH2CO}-F[NMeA]NPHL[Sar]WSW[NMeNle][NMeNle]RCG[PEG12]-NH2; thioether N-14) the pIC50 ([2]; Table 10, Compound No. 116 variant macrocyclic peptides, read-out: HTRF Human PD-L1/PD-1 Binding Assay IC50) was 7.68.
With `CCCC[C@H]1C(=O)N(C)[C@@H](CCCC)C(=O)N[C@@H](CCCNC(=N)N)C(=O)N[C@H](C(=O)NCC(N)=O)CSCC(=O)N[C@@H](Cc2ccccc2)C(=O)N(C)[C@@H](C)C(=O)N[C@@H](CC(N)=O)C(=O)N2CCC[C@H]2C(=O)N[C@@H](Cc2c[nH]cn2)C(=O)N[C@@H](CC(C)C)C(=O)N(C)CC(=O)N[C@@H](Cc2c[nH]c3ccccc23)C(=O)N[C@H](CCC(N)=O)C(=O)N[C@@H](Cc2c[nH]c3ccccc23)C(=O)N1C` [Compound No. 59] ({CH2CO}-F[NMeA]NPHL[Sar]W[dQ]W[NMeNle][NMeNle]RCG-NH2; thioether N-14 (inferred)) the pIC50 [2, 3] was < 5.00.
With `CC[C@H](C)[C@@H]1NC(=O)[C@H](C(C)C)NC(=O)[C@H]([C@@H](C)CC)NC(=O)[C@@H](Cc2ccccc2)NC(=O)[C@H](Cc2ccccc2)NC(=O)CSC[C@@H](C(=O)NCC(N)=O)NC(=O)[C@H](CCCNC(=N)N)NC(=O)[C@H](Cc2ccccc2)NC(=O)[C@H](C(C)C)NC(=O)[C@H](CCCNC(=N)N)NC(=O)[C@H](CC(=O)O)NC(=O)[C@H](CCCNC(=N)N)NC1=O` [Compound No. 102] (HELM PEPTIDE1{[O=C(C[*:3])[*:2]].F.[dF].I.V.I.R.D.R.V.F.R.C.G.[am]}$PEPTIDE1,PEPTIDE1,1:R3-13:R3$$$V2.0) the pIC50 ([2]; Table 7, Compound No. 99 variant macrocyclic peptides, read-out: HTRF Human PD-L1/PD-1 Binding Assay IC50) was < 4.70.
In the case of `CCCC[C@H]1C(=O)N(C)[C@@H](CCCC)C(=O)N[C@@H](CCCNC(=N)N)C(=O)N[C@H](C(=O)NCC(N)=O)CSCC(=O)N[C@@H](Cc2ccccc2)C(=O)N(C)[C@@H](C)C(=O)N[C@@H](CC(N)=O)C(=O)N2C[C@H](O)CC2C(=O)N[C@@H](Cc2cnc[nH]2)C(=O)N[C@@H](CC(C)C)C(=O)N(C)CC(=O)N[C@@H](Cc2c[nH]c3ccccc23)C(=O)N[C@@H](CO)C(=O)N[C@@H](Cc2c[nH]c3ccccc23)C(=O)N1C` (stereo partly drawn) [Compound No. 47] ({CH2CO}-F[NMeA]N[ξPro(4R-OH)]HL[Sar]WSW[NMeNle][NMeNle]RCG-NH2; thioether N-14), the pIC50 [2, 3] was 7.57.
With `CCCC[C@H]1C(=O)N[C@@H](CCCNC(=N)N)C(=O)N[C@H](C(=O)NCC(N)=O)CSCC(=O)N[C@@H](Cc2ccccc2)C(=O)N(C)[C@@H](C)C(=O)N[C@@H](CC(N)=O)C(=O)N2CCC[C@H]2C(=O)N[C@@H](Cc2cnc[nH]2)C(=O)N[C@@H](CC(C)C)C(=O)N(C)CC(=O)N[C@@H](Cc2c[nH]c3ccccc23)C(=O)N[C@@H](CO)C(=O)N[C@@H](Cc2c[nH]c3ccccc23)C(=O)N(C)[C@@H](CC(C)C)C(=O)N1C` [Compound No. 65] (HELM PEPTIDE1{[O=C(C[*:3])[*:2]].F.[meA].N.P.H.L.[Sar].W.S.W.[meL].[CCCC[C@@H](C(=O)[*:2])N(C)[*:1]].R.C.G.[am]}$PEPTIDE1,PEPTIDE1,1:R3-15:R3$$$V2.0) the pIC50 [2, 3] was 7.37.
Molecule `CCCC[C@H]1C(=O)N(C)[C@@H](CCCC)C(=O)N[C@@H](CCCNC(=N)N)C(=O)N[C@H](C(=O)NCC(N)=O)CSCC(=O)N[C@@H](Cc2ccncc2)C(=O)N(C)[C@@H](C)C(=O)N[C@@H](CC(N)=O)C(=O)N2CCC[C@H]2C(=O)N[C@@H](Cc2cnc[nH]2)C(=O)N[C@@H](CC(C)C)C(=O)N(C)CC(=O)N[C@@H](Cc2c[nH]c3ccccc23)C(=O)N[C@@H](CO)C(=O)N[C@@H](Cc2c[nH]c3ccccc23)C(=O)N1C` [Compound No. 39] ({CH2CO}-[4Pal][NMeA]NPHL[Sar]WSW[NMeNle][NMeNle]RCG-NH2; thioether N-14) has a pIC50 [2, 3] of 7.48.
Molecule `CCCC[C@H]1C(=O)N(C)[C@@H](CCCC)C(=O)N[C@@H](CCCNC(=N)N)C(=O)N[C@H](C(=O)NCC(N)=O)CSCC(=O)N[C@@H](Cc2ccc(Br)cc2)C(=O)N(C)[C@@H](C)C(=O)N[C@@H](CC(N)=O)C(=O)N2CCC[C@H]2C(=O)N[C@@H](Cc2cnc[nH]2)C(=O)N[C@@H](CC(C)C)C(=O)N(C)CC(=O)N[C@@H](Cc2c[nH]c3ccccc23)C(=O)N[C@@H](CO)C(=O)N[C@@H](Cc2c[nH]c3ccccc23)C(=O)N1C` [Compound No. 34] ({CH2CO}-[Phe(4-Br)][NMeA]NPHL[Sar]WSW[NMeNle][NMeNle]RCG-NH2; thioether N-14) has a pIC50 [2, 3] of 8.40.
For `CCCC[C@H]1C(=O)N(C)[C@@H](CCCC)C(=O)N[C@@H](C)C(=O)N[C@H](C(=O)NCC(N)=O)CSCC(=O)N[C@@H](Cc2ccccc2)C(=O)N(C)[C@@H](C)C(=O)N[C@@H](CC(N)=O)C(=O)N2CCC[C@H]2C(=O)N[C@@H](Cc2cnc[nH]2)C(=O)N[C@@H](CC(C)C)C(=O)N(C)CC(=O)N[C@@H](Cc2c[nH]c3ccccc23)C(=O)N[C@H](C)C(=O)N[C@@H](Cc2c[nH]c3ccccc23)C(=O)N1C` [Compound No. 60] ({CH2CO}-F[NMeA]NPHL[Sar]W[dA]W[NMeNle][NMeNle]ACG-NH2; thioether N-14), the pIC50 [2, 3] was 7.37.
`CCCC[C@H]1C(=O)N(C)CC(=O)N[C@@H](CC(=O)O)C(=O)N[C@@H](C(C)C)C(=O)N(C)[C@@H](Cc2ccccc2)C(=O)N[C@@H](Cc2ccc(O)cc2)C(=O)N(C)CC(=O)N[C@@H](Cc2c[nH]c3ccccc23)C(=O)N[C@@H](Cc2ccc(O)cc2)C(=O)N[C@@H](CC(C)C)C(=O)N[C@H](C(=O)NCC(N)=O)CSCC(=O)N[C@@H](Cc2ccccc2)C(=O)N(C)[C@@H](Cc2cnc[nH]2)C(=O)N1C` [Example 3056-B] (HELM PEPTIDE1{[O=C(C[*:3])[*:2]].F.[meH].[CCCC[C@@H](C(=O)[*:2])N(C)[*:1]].[Sar].D.V.[meF].Y.[Sar].W.Y.L.C.G.[am]}$PEPTIDE1,PEPTIDE1,1:R3-14:R3$$$V2.0) gave a pIC50 ([2]; cluster symbol, read-out: HTRF IC50 cluster) of 7.52 to 8.17.
`CCCC[C@H]1C(=O)N(C)[C@@H](CCCC)C(=O)N[C@@H](CCCNC(=N)N)C(=O)N[C@H](C(=O)NCC(N)=O)CSCC(=O)N[C@@H](Cc2ccccc2)C(=O)N(C)[C@@H](C)C(=O)N[C@@H](CC(N)=O)C(=O)N2CCCC2C(=O)N[C@@H](Cc2cnc[nH]2)C(=O)N[C@@H](C)C(=O)N(C)CC(=O)N[C@@H](Cc2c[nH]c3ccccc23)C(=O)N[C@@H](CO)C(=O)N[C@@H](Cc2c[nH]c3ccccc23)C(=O)N1C` (stereo partly shown) [Compound No. 11] ({CH2CO}-F[NMeA]N[ξP]HA[Sar]WSW[NMeNle][NMeNle]RCG-NH2; thioether N-14) showed a pIC50 [2, 3] of 7.51.
For `CCCC[C@H]1C(=O)N(C)[C@@H](CCCC)C(=O)N[C@@H](CCCNC(=N)N)C(=O)N[C@H](C(N)=O)CSCC(=O)N[C@@H](Cc2ccccc2)C(=O)N(C)[C@@H](C)C(=O)N[C@@H](CC(N)=O)C(=O)N2CCCC2C(=O)N[C@@H](Cc2cnc[nH]2)C(=O)N[C@@H](CC(C)C)C(=O)N(C)CC(=O)N[C@@H](Cc2c[nH]c3ccccc23)C(=O)N[C@@H](CO)C(=O)N[C@@H](Cc2c[nH]c3ccccc23)C(=O)N1C` (stereo partly shown) [Compound No. 24] ({CH2CO}-F[NMeA]N[ξP]HL[Sar]WSW[NMeNle][NMeNle]RC-NH2; thioether N-14), the pIC50 [2, 3] was 8.05.
